In assay [1] the test system is TSH. Put plainly: TSH level by solid-phase radioimmunoassay before treatment and at 4-weeks follow-up. As to conditions: MDD subjects n=19, after 4 weeks T3; baseline TSH 1.75 ± .71. The format is in vivo, human.
Assay [2] deals with MDD subjects. Description: 4-week open T3 augmentation of SSRI, HAMD-17 depression rating. The format is in vivo, human. The source says: 19 depressed subjects were recruited through advertisements and clinical referrals for a treatment study at Massachusetts General Hospital between 2001 and 2003, and underwent ^31P MRS scans before and after antidepression treatment. All 19 depressed subjects were between ages of 18 and 65, and suffered from MDD, as determined by pre-antidepression treatment score of ≧16 on the HAMD-17 scale. All 19 MDD subjects had previously shown minimal or no response to treatment with an SSRI taken for ≧8 weeks, with ≧4 weeks at a stable dose (fluoxetine ≧40 mg/day, sertraline ≧100 mg/day, paroxetine ≧40 mg/day, citalopram ≧40 mg/day, escitalopram ≧20 mg/day).
The HAMD-17 scale was administered every 2 weeks.
Nonparametric Wilcoxon rank sum (Mann-Whitney U) test was used to compare baseline levels of ^31P MRS metabolites between MDD subjects and normal control subjects. Clinical outcome was defined as response to treatment (HAMD-17 reduction ≧50% during treatment).

Values joined by “and” are separate entries in the source; they are usually repeats but may differ in a detail not shown here. Equal values may be shown once.

With `N[C@@H](Cc1cc(I)c(Oc2ccc(O)c(I)c2)c(I)c1)C(=O)O` [T3, triiodothyronine], the “Final TSH” value in assay [1] is recorded as “.10 ± .24 mIU/L”. For the same molecule, the “mean severity of depression HAMD-17 after 4 weeks of treatment” value in assay [2] (MDD subjects n=19, T3 50 μg daily added to existing SSRI, baseline HAMD-17 20.3±3.6) amounted to 13.3±6.6. Further, the “treatment responders (HAMD-17 reduction ≧50%)” value in assay [2] (MDD subjects, T3 50 μg daily added to SSRI, 4 weeks, seven subjects) was 38.9% and 36.8%. In addition, the “clinical remission (final HAMD-17<7)” value in assay [2] (MDD subjects, T3 50 μg daily added to SSRI, 4 weeks, six subjects) was 31.6%.

(Values after patent publication US8694073B2, “Predicting efficacy of psychiatric treatment” (University of Utah Research Foundation, priority 2008, dated 2014).)
